Experimental data as given in patent publication US9834542B2, “LXR modulators” (BRISTOL-MYERS SQUIBB COMPANY, priority 2013, dated 2017).

Target: T1, LXRβ (Homo sapiens, UniProt P55055)
T1 construct: Co-transfection expression plasmids, comprising full-length LXRα (pCMX-h LXRα[…] or LXRβ (pCMX-hLXRβ)); expressed in transfected cells; host or cells: CV-1 African Green Monkey Kidney Cells
T1 sequence (P55055 1-460): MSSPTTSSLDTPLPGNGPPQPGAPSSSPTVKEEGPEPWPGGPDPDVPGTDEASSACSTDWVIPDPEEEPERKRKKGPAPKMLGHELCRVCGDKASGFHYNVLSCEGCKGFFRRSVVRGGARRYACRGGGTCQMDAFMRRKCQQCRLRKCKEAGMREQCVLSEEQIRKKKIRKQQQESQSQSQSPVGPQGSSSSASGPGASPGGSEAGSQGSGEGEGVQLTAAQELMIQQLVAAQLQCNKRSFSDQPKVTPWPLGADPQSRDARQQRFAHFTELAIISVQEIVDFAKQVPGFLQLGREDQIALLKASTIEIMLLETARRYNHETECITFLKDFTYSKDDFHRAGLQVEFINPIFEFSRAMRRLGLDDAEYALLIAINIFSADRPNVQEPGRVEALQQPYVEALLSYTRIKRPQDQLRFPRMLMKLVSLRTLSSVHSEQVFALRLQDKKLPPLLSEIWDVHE
T1 sequence (P19793 1-462 partner): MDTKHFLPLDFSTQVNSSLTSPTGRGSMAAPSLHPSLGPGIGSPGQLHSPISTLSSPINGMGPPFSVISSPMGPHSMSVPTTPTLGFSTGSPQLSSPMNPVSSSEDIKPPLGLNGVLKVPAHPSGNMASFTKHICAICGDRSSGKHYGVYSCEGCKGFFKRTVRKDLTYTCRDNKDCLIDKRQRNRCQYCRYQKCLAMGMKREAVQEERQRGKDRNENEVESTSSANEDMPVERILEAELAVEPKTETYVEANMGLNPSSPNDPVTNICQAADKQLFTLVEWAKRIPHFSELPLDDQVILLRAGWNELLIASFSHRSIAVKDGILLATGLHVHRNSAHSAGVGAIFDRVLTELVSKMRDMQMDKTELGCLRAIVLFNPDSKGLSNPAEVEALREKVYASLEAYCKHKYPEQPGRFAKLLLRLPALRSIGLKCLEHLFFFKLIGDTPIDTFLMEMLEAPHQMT
Assay: Co-transfection assay (LXRE luciferase reporter), LXRβ
Type: cell-based
Parameters: % Efficacy: concentration or dose not given beside the values
Settings: for EC50: CV-1 cells transfected with pCMX-hLXRβ and LXREx1-Tk-Luciferase, 20 hours incubation; for Emax: read-out: % Efficacy
Summary of the method: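 CV-1 cells transiently co-transfected with full-length human LXRβ expression plasmid, LXREx1-Tk-luciferase reporter and β-galactosidase control, then exposed to compound for 20 h at 37 °C. Luciferase luminescence read; EC50 from 11-point, ½-log dose–response fit, efficacy relative to high-control agonist maximum.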

[1] = LXRβ co-transfection, relative to high control 1-(2,4-difluorobenzyl)-2-oxo-6-(4-phenoxyphenyl)-4-(trifluoromethyl)-1,2-dihydropyridine-3-carbonitrile

Row | Compound | EC50 [nM] | Emax [1] [%] | % Efficacy [1] [%]
1 | Cc1nc(C(F)(F)F)cn1-c1ccc(-c2cccc(S(C)(=O)=O)c2)cc1-c1nc(CCO)oc1-c1ccc(OC(F)(F)F)cc1 [Example 524, 2-(4-(4-(2-methyl-4-(trifluoromethyl)-1H-imidazol-1-yl)-3′-(methylsulfonyl)-[1,1′-biphenyl]-3-yl)-5-(4-(trifluoromethoxy)phenyl)oxazol-2-yl)ethanol] | 514 | 66 | 
2 | Cc1nc(C(F)(F)F)cn1-c1ccc(-c2cccc(S(C)(=O)=O)c2)cc1-n1nncc1-c1ccc(F)c(F)c1 [Example 34, 5-(3,4-difluorophenyl)-1-{3′-(methylsulfonyl)-4-[2-methyl-4-(trifluoromethyl)-1H-imidazol-1-yl]biphenyl-3-yl}-1H-1,2,3-triazole] | 661 | 94 | 
3 | Cc1cn(-c2ccc(-c3cccc(S(C)(=O)=O)c3)cc2-n2nncc2-c2ccc(OC(F)(F)F)cc2)c(C)n1 [Example 83, 1-[4-(2,4-dimethyl-1H-imidazol-1-yl)-3′-(methylsulfonyl)biphenyl-3-yl]-5-{4-[(trifluoromethyl)oxy]phenyl}-1H-1,2,3-triazole] | 1160 | 69 | 
4 | CCS(=O)(=O)c1cccc(-c2ccc(-n3cc(C(F)F)nc3C)c(-n3nncc3-c3ccc(OC(F)(F)F)cc3)c2)c1 [Example 157, 1-{4-[4-(difluoromethyl)-2-methyl-1H-imidazol-1-yl]-3′-(ethylsulfonyl)biphenyl-3-yl}-5-{4-[(trifluoromethyl)oxy]phenyl}-1H-1,2,3-triazole] | 1130 | 104 | 
5 | Cc1nc(-c2ccc3c(c2)OC(F)(F)O3)c(-c2cc(-c3cc(F)c(CO)c(S(C)(=O)=O)c3)ccc2-n2cc(C(F)(F)F)nc2C)o1 [Example 617, (3′-(4-(2,2-difluorobenzo[d][1,3]dioxol-5-yl)-2-methyloxazol-5-yl)-3-fluoro-4′-(2-methyl-4-(trifluoromethyl)-1H-imidazol-1-yl)-5-(methylsulfonyl)-[1,1′-biphenyl]-4-yl)methanol] | 37 | 84 | 
6 | Cc1nc(-c2cc(-c3cc(F)cc(S(C)(=O)=O)c3)ccc2-n2cc(C(F)(F)F)nc2C)c(-c2ccc3c(c2)OC(F)(F)O3)o1 [Example 463, 5-(2,2-difluorobenzo[d][1,3]dioxol-5-yl)-4-(3′-fluoro-4-(2-methyl-4-(trifluoromethyl)-1H-imidazol-1-yl)-5′-(methylsulfonyl)biphenyl-3-yl)-2-methyloxazole] | 155 | 73 | 
7 | Cc1nc(C(F)(F)F)cn1-c1ccc(-c2cc(F)c(CO)c(S(C)(=O)=O)c2)cc1-c1ncoc1-c1ccc(Cl)cc1 [Example 365, {3′-[5-(4-chlorophenyl)-1,3-oxazol-4-yl]-3-fluoro-5-(methylsulfonyl)-4′-[2-methyl-4-(trifluoromethyl)-1H-imidazol-1-yl]biphenyl-4-yl}methanol] | 307 | 81 | 
8 | CCC(F)(F)c1cn(-c2ccc(-c3cc(F)c(CO)c(S(C)(=O)=O)c3)cc2-n2nncc2-c2ccc(OC(F)(F)F)cc2)c(C)n1 [Example 186, {4′-[4-(1,1-difluoropropyl)-2-methyl-1H-imidazol-1-yl]-3-fluoro-5-(methylsulfonyl)-3′-(5-{4-[(trifluoromethyl)oxy]phenyl}-1H-1,2,3-txiazol-1-yl)biphenyl-4-yl}methanol] | 168 | 81 | 
9 | Cc1nc(C(F)(F)F)cn1-c1ccc(-c2cc(F)c(CO)c(S(C)(=O)=O)c2)cc1-n1nncc1C(=O)c1cccc(C(F)(F)F)c1 [Example 136, (1-{3′-fluoro-4′-(hydroxymethyl)-5′-(methylsulfonyl)-4-[2-methyl-4-(trifluoromethyl)-1H-imidazol-1-yl]biphenyl-3-yl}-1H-1,2,3-triazol-5-yl)[3-(trifluoromethyl)phenyl]meth-anone] | 764 | 69 | 
10 | Cc1nc(-c2cc(-c3cc(F)c(CO)c(S(C)(=O)=O)c3)ccc2-n2cc(C(F)(F)F)nc2C)c(-c2ccc(OC(F)F)c(OC3CC3)c2)o1 [Example 387, (3′-(5-(3-cyclopropoxy-4-(difluoromethoxy)phenyl)-2-methyloxazol-4-yl)-3-fluoro-4′-(2-methyl-4-(trifluoromethyl)-1H-imidazol-1-yl)-5-(methylsulfonyl)biphenyl-4-yl)methanol] | 19 | 73 | 
11 | Cc1nc(-c2cc(-c3cc(F)c(CO)c(S(C)(=O)=O)c3)ccc2-n2cc(C(C)O)nc2C)c(-c2ccc3c(c2)OC(F)(F)O3)o1 (single isomer, unassigned) [Example 515, 1-(1-(3-(5-(2,2-difluorobenzo[d][1,3]dioxol-5-yl)-2-methyloxazol-4-yl)-3′-fluoro-4′-(hydroxymethyl)-5′-(methylsulfonyl)-[1,1′-biphenyl]-4-yl)-2-methyl-1H-imidazol-4-yl)ethanol] | 1210 |  | 19
12 | Cc1nc(C(F)(F)F)cn1-c1ccc(-c2cccc(S(C)(=O)=O)c2)cc1-c1oc(CCO)nc1-c1ccc(OC(F)(F)F)cc1 [Example 611, 2-(5-(4-(2-methyl-4-(trifluoromethyl)-1H-imidazol-1-yl)-3′-(methylsulfonyl)-[1,1′-biphenyl]-3-yl)-4-(4-(trifluoromethoxy)phenyl)oxazol-2-yl)ethanol] | 554 | 62 | 

More lines, in order of falling EC50, values ahead:

Row | EC50 [nM] | Emax [1] [%] | % Efficacy [1] [%] | Compound
13 | 677 | 92 |  | CS(=O)(=O)c1cccc(-c2ccc(-n3cc(C(F)(F)F)nc3C(F)F)c(-n3nncc3-c3ccc(OC(F)(F)F)cc3)c2)c1 [Example 226, 1-(4-(2-(difluoromethyl)-4-(trifluoromethyl)-1H-imidazol-1-yl)-3′-(methylsulfonyl)-[1,1′-biphenyl]-3-yl)-5-(4-(trifluoromethoxy)phenyl)-1H-1,2,3-triazole]
14 | 502 | 93 |  | CCS(=O)(=O)c1cc(-c2ccc(-n3cc(C(F)(F)F)nc3C)c(-n3nncc3-c3ccc(OC(F)(F)F)cc3)c2)cc(F)c1CO [Example 92, [3-(ethylsulfonyl)-5-fluoro-4′-[2-methyl-4-(trifluoromethyl)-1H-imidazol-1-yl]-3′-(5-{4-[(trifluoromethyl)oxy]phenyl}-1H-1,2,3-triazol-1-yl)biphenyl-4-yl]methanol]
15 | 412 | 82 |  | Cc1nc(C(F)(F)F)cn1-c1ccc(-c2cccc(S(C)(=O)=O)c2)cc1-c1oc(CCN(C)C)nc1-c1ccc(OC(F)(F)F)cc1 [Example 628, N,N-dimethyl-2-(5-(4-(2-methyl-4-(trifluoromethyl)-1H-imidazol-1-yl)-3′-(methylsulfonyl)-[1,1′-biphenyl]-3-yl)-4-(4-(trifluoromethoxy)phenyl)oxazol-2-yl)ethanamine]
16 | 171 | 88 |  | Cc1ccc(-c2cnnn2-c2cc(-c3cccc(S(C)(=O)=O)c3)ccc2-n2cc(C(F)(F)F)nc2C)cc1 [Example 50, 5-(4-methylphenyl)-1-{3′-(methylsulfonyl)-4-[2-methyl-4-(trifluoromethyl)-1H-imidazol-1-yl]biphenyl-3-yl}-1H-1,2,3-triazole]
17 | 110 | 97 |  | Cc1nc(C(F)(F)F)cn1-c1c(F)cc(-c2cccc(S(C)(=O)=O)c2)cc1-n1nncc1-c1ccc(Cl)cc1 [Example 204, 5-(4-chlorophenyl)-1-{5-fluoro-3′-(methylsulfonyl)-4-[2-methyl-4-(trifluoromethyl)-1H-imidazol-1-yl]biphenyl-3-yl}-1H-1,2,3-triazole]
18 | 71 | 108 |  | Cc1nc(-c2cc(-c3cccc(S(C)(=O)=O)c3)ccc2-n2cc(C(F)(F)F)nc2C)c(-c2ccc(OC(F)F)cc2)o1 [Example 495, 5-(4-(difluoromethoxy)phenyl)-2-methyl-4-(4-(2-methyl-4-(trifluoromethyl)-1H-imidazol-1-yl)-3′-(methylsulfonyl)biphenyl-3-yl)oxazole]
19 | 16 | 89 |  | C=Cc1nc(-c2cc(-c3cccc(S(C)(=O)=O)c3)ccc2-n2cc(C(F)(F)F)nc2C)c(-c2ccc3c(c2)OC(F)(F)O3)o1 [Example 532]
